Legend:
Type in all cases: biochemical
rmGPa = target: T1, rmGPa (Oryctolagus cuniculus, UniProt P00489); experiment: inorganic phosphate release, glycogen synthesis direction
T1 construct: gene PYGM; native rabbit skeletal muscle GPb converted to the phosphorylated a form with truncated gamma subunit of rabbit phosphorylase kinase
T1 sequence (P00489 2-843): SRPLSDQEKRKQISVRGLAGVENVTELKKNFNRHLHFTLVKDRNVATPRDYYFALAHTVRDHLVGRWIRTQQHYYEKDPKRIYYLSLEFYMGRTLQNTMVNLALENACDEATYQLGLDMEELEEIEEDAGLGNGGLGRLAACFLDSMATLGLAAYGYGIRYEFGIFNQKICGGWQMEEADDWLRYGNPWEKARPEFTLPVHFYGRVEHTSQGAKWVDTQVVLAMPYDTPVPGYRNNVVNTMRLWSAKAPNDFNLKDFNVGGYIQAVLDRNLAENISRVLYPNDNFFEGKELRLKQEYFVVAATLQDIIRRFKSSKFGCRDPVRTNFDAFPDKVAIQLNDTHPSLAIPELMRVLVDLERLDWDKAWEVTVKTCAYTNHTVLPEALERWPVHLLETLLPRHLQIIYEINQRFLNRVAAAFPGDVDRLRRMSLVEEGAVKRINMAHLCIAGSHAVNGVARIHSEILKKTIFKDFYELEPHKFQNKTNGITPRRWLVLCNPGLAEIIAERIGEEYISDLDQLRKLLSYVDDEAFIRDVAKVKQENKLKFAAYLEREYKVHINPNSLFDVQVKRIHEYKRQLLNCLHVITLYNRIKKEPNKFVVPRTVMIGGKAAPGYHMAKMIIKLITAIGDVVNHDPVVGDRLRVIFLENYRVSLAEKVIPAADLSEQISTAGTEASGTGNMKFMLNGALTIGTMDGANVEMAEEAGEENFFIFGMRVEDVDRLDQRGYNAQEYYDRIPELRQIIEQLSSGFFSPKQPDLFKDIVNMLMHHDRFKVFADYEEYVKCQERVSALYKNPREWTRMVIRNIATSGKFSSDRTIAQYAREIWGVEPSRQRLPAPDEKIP
Excerpt: inorganic phosphate release, glycogen synthesis direction on rmGPa

hlGPa = target: T2, hlGPa (Homo sapiens, UniProt P06737); experiment: as above
T2 construct: gene PYGL; recombinant human liver GPb (produced as described previously) converted to the phosphorylated a form with truncated gamma subunit of rabbit phosphorylase kinase
T2 sequence (P06737 2-847): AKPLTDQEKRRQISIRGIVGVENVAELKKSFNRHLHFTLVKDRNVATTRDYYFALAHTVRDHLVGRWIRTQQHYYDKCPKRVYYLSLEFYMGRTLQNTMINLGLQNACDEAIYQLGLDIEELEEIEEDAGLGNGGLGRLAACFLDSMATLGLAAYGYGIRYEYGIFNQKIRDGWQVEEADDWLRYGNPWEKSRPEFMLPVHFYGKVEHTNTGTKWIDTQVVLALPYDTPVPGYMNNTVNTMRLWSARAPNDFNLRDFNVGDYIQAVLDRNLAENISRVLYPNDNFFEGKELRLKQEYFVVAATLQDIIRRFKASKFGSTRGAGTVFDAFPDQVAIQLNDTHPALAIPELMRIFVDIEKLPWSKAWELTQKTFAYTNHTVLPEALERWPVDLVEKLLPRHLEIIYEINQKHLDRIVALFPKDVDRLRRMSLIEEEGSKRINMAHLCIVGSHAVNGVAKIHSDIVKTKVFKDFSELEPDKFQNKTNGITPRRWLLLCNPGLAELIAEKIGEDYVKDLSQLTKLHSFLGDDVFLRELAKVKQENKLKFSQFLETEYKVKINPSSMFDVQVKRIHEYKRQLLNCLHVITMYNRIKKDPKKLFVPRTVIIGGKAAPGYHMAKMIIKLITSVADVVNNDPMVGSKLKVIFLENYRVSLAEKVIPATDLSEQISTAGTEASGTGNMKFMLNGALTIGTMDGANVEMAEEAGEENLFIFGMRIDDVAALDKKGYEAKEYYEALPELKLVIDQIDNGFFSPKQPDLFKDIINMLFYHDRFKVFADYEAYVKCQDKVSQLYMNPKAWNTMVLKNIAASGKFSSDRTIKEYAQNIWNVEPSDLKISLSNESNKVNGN
Excerpt: inorganic phosphate release, glycogen synthesis direction on hlGPa

rmGPb = target: T3, rmGPb (Oryctolagus cuniculus, UniProt P00489); experiment: inorganic phosphate release, glycogen synthesis direction; crystal structure of the complex also solved
T3 construct: gene PYGM; native, purified from rabbit skeletal muscles (Fischer and Krebs), unphosphorylated b form
T3 sequence (P00489 2-843): T1 sequence (P00489 2-843)
Excerpt: inorganic phosphate release, glycogen synthesis direction; crystal structure of the complex also solved on rmGPb

Row | SMILES | Ki (rmGPa) [µM] | Ki (hlGPa) [µM] | Ki (rmGPb) [µM]
1 | O=C(N[C@@H]1O[C@H](CO)[C@@H](O)[C@H](O)[C@H]1O)c1cccc(-c2ccc(F)cc2)c1 [compound 3, 4’-fluoro-N-(3,4,5-trihydroxy-6-(hydroxymethyl)tetrahydro-2H-pyran-2-yl)biphenyl-3-carboxamide] | 31.4 ± 2.2 | 45.6 ± 1.8 | 56.1 ± 4.4
2 | O=C(N[C@@H]1O[C@H](CO)[C@@H](O)[C@H](O)[C@H]1O)c1ccc(-c2ccccc2)cc1 [compound 4, N-(3,4,5-trihydroxy-6-(hydroxymethyl)tetrahydro-2H-pyran-2-yl)biphenyl-4-carboxamide] | 12.8 ± 0.6 | 19.4 ± 0.2 | 9.7 ± 0.7

Reference: publication PMC6479789, “High Consistency of Structure-Based Design and X-Ray Crystallography: Design, Synthesis, Kinetic Evaluation and Crystallographic Binding Mode Determination of Biphenyl-N-acyl-β-D-Glucopyranosylamines as Glycogen Phosphorylase Inhibitors” (Molecules, 2019)
